Assay results from US9274101B2 (BIOLOG, Inc., priority 2001, dated 2016).

Tests used:
Format in all cases: cell-based, human
[1] = tested on: Undifferentiated HL-60 cells; assay: Energy use by undifferentiated HL-60 cells
HL-60 cells [2] = assay: HL-60 responses to selected compounds at a range of concentrations
Description: In this Example, methods for testing unattached cells for their ability to use various concentrations of selected carbon sources are described. The carbon sources used in this Example were identified by the methods disclosed in Example 27. Similarly, HL-60 cells were cultured as described in Example 27.
After washing, HL-60 cells were resuspended in DME-R. An aliquot of the cell suspension was counted by trypan blue exclusion and the cell density was adjusted to 6.67×10^5/mL. Fifty μL of DME-R were added to each well of the appropriate number of half area, 96-well plates, followed by 23 μL of the appropriate dilution of each test energy source. Stocks of 133 mM of each test chemical were prepared in tissue culture grade water, sterile filtered, and dilutions were prepared in a master plate so that, upon dilution in a total volume of 150 μL, the final concentrations would be 0.033 to 20 mM. Negative control wells received 23 μL of tissue culture grade water. The cells were plated at a volume of 75 μL/well, giving a final cell density of 5×10^4/well. For each plate containing energy sources and cells, a second, control plate containing only energy sources was prepared. Plates were incubated at 5% CO2, 90-100% humidity, and 37° C. for 24 hours prior to addition of the MTS/MPMS colorometric reagent (7.5 μL/well). The color formed in each well after an additional 24 hour incubation period, was measured on a plate reader at 490 nm with a reference wavelength of 650 nm. OD values from the control plate were subtracted from the OD values obtained with cells prior to normalizing the data to % negative control (cells without added energy source).

HL-60 cells [3] = assay: Effect of 1 mM chloramphenicol on HL-60 energy utilization; conditions: negative control without chloramphenicol
Description: In this Example, methods for testing antimicrobial-induced modulation in growth of a cell are described. The antimicrobial selected for this Example is chloramphenicol. However, this application is not intended to be limited to the use of chloramphenicol, translation inhibitors or even antibiotics. HL-60 cells were cultured as described in Example 27.
After washing, HL-60 cells were resuspended in DME-R. An aliquot of the cell suspension was counted by trypan blue exclusion and the cell density was adjusted to 6.67×10^5[…]. Fifty μL of DME-R containing 3 mM chloramphenicol were added to each well of the appropriate number of half area, 96-well plates, followed by 25 μL of the appropriate dilution of each test energy source. Stocks of 133 mM of each test chemical were prepared in tissue culture grade water, sterile filtered, and dilutions were prepared in a master plate so that, upon dilution in a total volume of 150 μL, the final concentrations would be 0.033 to 20 mM. Negative control wells received 25 μL of tissue culture grade water. The cells were plated at a volume of 75 μL/well, giving a final cell density of 5×10^4/well. For each plate containing energy sources and cells, a second, control plate containing only energy sources was prepared. Plates were incubated at 5% CO2, 90-100% humidity, and 37° C. for 24 hours prior to addition of the MTS/MPMS colorimetric reagent (7.5 μL/well). The color formed in each well 24 hours after addition of the colorimetric reagent, was measured with a plate reader at 490 nm with a reference wavelength of 650 nm. OD values from the control plate were subtracted from the OD values obtained with cells prior to normalizing the data to % negative control.
Data shown in Table 25 are expressed as percent negative control without chloramphenicol. […] Chloramphenicol clearly has a different effect on the cells than citrate shown in Example 33.

[4] = energy source 0.03 mM with 1 mM chloramphenicol
[5] = energy source 0.10 mM with 1 mM chloramphenicol
[6] = energy source 0.33 mM with 1 mM chloramphenicol
[7] = energy source 1.00 mM with 1 mM chloramphenicol
[8] = energy source 3.3 mM with 1 mM chloramphenicol
[9] = energy source 10 mM with 1 mM chloramphenicol
[10] = energy source 15 mM with 1 mM chloramphenicol
[11] = energy source 20 mM with 1 mM chloramphenicol

## O=C(O)[C@@H]1C[C@@H](O)CN1 [hydroxy L-proline]
[1]; Conc. 0.03 mM
  Energy Use by Undifferentiated HL-60 Cells: 109.9 % of negative control
[1]; Conc. 0.10 mM
  Energy Use by Undifferentiated HL-60 Cells: 112.9 % of negative control
[1]; Conc. 0.33 mM
  Energy Use by Undifferentiated HL-60 Cells: 99.6 % of negative control
[1]; Conc. 1.00 mM
  Energy Use by Undifferentiated HL-60 Cells: 104.7 % of negative control
[1]; Conc. 3.3 mM
  Energy Use by Undifferentiated HL-60 Cells: 114.7 % of negative control
[1]; Conc. 10 mM
  Energy Use by Undifferentiated HL-60 Cells: 117.8 % of negative control
[1]; Conc. 15 mM
  Energy Use by Undifferentiated HL-60 Cells: 124.2 % of negative control
[1]; Conc. 20 mM
  Energy Use by Undifferentiated HL-60 Cells: 101.8 % of negative control
HL-60 cells [2]; 0.033 to 20 mM, 24 h culture + 24 h color development
  response greater than the negative control: < 30%
HL-60 cells [2]; Conc. 0.03 mM
  HL-60 Cell Responses to Selected Compounds from PM1 and PM2: 125.0 % of negative control
HL-60 cells [2]; Conc. 0.10 mM
  HL-60 Cell Responses to Selected Compounds from PM1 and PM2: 122.8 % of negative control
HL-60 cells [2]; Conc. 0.33 mM
  HL-60 Cell Responses to Selected Compounds from PM1 and PM2: 121.5 % of negative control
HL-60 cells [2]; Conc. 1.00 mM
  HL-60 Cell Responses to Selected Compounds from PM1 and PM2: 128.4 % of negative control
HL-60 cells [2]; Conc. 3.3 mM
  HL-60 Cell Responses to Selected Compounds from PM1 and PM2: 129.6 % of negative control
HL-60 cells [2]; Conc. 10 mM
  HL-60 Cell Responses to Selected Compounds from PM1 and PM2: 121.5 % of negative control
HL-60 cells [2]; Conc. 15 mM
  HL-60 Cell Responses to Selected Compounds from PM1 and PM2: 111.8 % of negative control
HL-60 cells [2]; Conc. 20 mM
  HL-60 Cell Responses to Selected Compounds from PM1 and PM2: 99.2 % of negative control
HL-60 cells [3]; [4]
  Effect of 1 mM chloramphenicol on HL-60 Energy Utilization: 1.2 % of negative control
HL-60 cells [3]; [5]
  Effect of 1 mM chloramphenicol on HL-60 Energy Utilization: −5.0 % of negative control
HL-60 cells [3]; [6]
  Effect of 1 mM chloramphenicol on HL-60 Energy Utilization: 2.6 % of negative control
HL-60 cells [3]; [7]
  Effect of 1 mM chloramphenicol on HL-60 Energy Utilization: −1.2 % of negative control
HL-60 cells [3]; [8]
  Effect of 1 mM chloramphenicol on HL-60 Energy Utilization: 4.4 % of negative control
HL-60 cells [3]; [9]
  Effect of 1 mM chloramphenicol on HL-60 Energy Utilization: 1.7 % of negative control
HL-60 cells [3]; [10]
  Effect of 1 mM chloramphenicol on HL-60 Energy Utilization: 15.7 % of negative control
HL-60 cells [3]; [11]
  Effect of 1 mM chloramphenicol on HL-60 Energy Utilization: 0.6 % of negative control

## O=C1O[C@H]([C@@H](O)CO)[C@@H](O)[C@@H]1O [L-gal acid g-lactone]
[1]; Conc. 0.03 mM
  Energy Use by Undifferentiated HL-60 Cells: 117.0 % of negative control
[1]; Conc. 0.10 mM
  Energy Use by Undifferentiated HL-60 Cells: 125.9 % of negative control
[1]; Conc. 0.33 mM
  Energy Use by Undifferentiated HL-60 Cells: 132.9 % of negative control
[1]; Conc. 1.00 mM
  Energy Use by Undifferentiated HL-60 Cells: 137.0 % of negative control
[1]; Conc. 3.3 mM
  Energy Use by Undifferentiated HL-60 Cells: 160.8 % of negative control
[1]; Conc. 10 mM
  Energy Use by Undifferentiated HL-60 Cells: 153.0 % of negative control
[1]; Conc. 15 mM
  Energy Use by Undifferentiated HL-60 Cells: 163.4 % of negative control
[1]; Conc. 20 mM
  Energy Use by Undifferentiated HL-60 Cells: 126.2 % of negative control
HL-60 cells [2]; Conc. 0.03 mM
  HL-60 Cell Responses to Selected Compounds from PM1 and PM2: 129.3 % of negative control
HL-60 cells [2]; Conc. 0.10 mM
  HL-60 Cell Responses to Selected Compounds from PM1 and PM2: 132.3 % of negative control
HL-60 cells [2]; Conc. 0.33 mM
  HL-60 Cell Responses to Selected Compounds from PM1 and PM2: 132.4 % of negative control
HL-60 cells [2]; Conc. 1.00 mM
  HL-60 Cell Responses to Selected Compounds from PM1 and PM2: 145.0 % of negative control
HL-60 cells [2]; Conc. 3.3 mM
  HL-60 Cell Responses to Selected Compounds from PM1 and PM2: 141.5 % of negative control
HL-60 cells [2]; Conc. 10 mM
  HL-60 Cell Responses to Selected Compounds from PM1 and PM2: 122.8 % of negative control
HL-60 cells [2]; Conc. 15 mM
  HL-60 Cell Responses to Selected Compounds from PM1 and PM2: 125.0 % of negative control
HL-60 cells [2]; Conc. 20 mM
  HL-60 Cell Responses to Selected Compounds from PM1 and PM2: 100.4 % of negative control
HL-60 cells [3]; [4]
  Effect of 1 mM chloramphenicol on HL-60 Energy Utilization: −2.0 % of negative control
HL-60 cells [3]; [5]
  Effect of 1 mM chloramphenicol on HL-60 Energy Utilization: −8.4 % of negative control
HL-60 cells [3]; [6]
  Effect of 1 mM chloramphenicol on HL-60 Energy Utilization: 4.3 % of negative control
HL-60 cells [3]; [7]
  Effect of 1 mM chloramphenicol on HL-60 Energy Utilization: −13.9 % of negative control
HL-60 cells [3]; [8]
  Effect of 1 mM chloramphenicol on HL-60 Energy Utilization: 3.7 % of negative control
HL-60 cells [3]; [9]
  Effect of 1 mM chloramphenicol on HL-60 Energy Utilization: 14.5 % of negative control
HL-60 cells [3]; [10]
  Effect of 1 mM chloramphenicol on HL-60 Energy Utilization: 18.0 % of negative control
HL-60 cells [3]; [11]
  Effect of 1 mM chloramphenicol on HL-60 Energy Utilization: 2.4 % of negative control

## COC(=O)CCC(=O)O [mono methyl succinate]
[1]; Homo sapiens, HL-60, 24 h, Conc. 0.03 mM, read-out: Energy Use by Undifferentiated HL-60 Cells
  activity at 30 µM: 104%
[1]; Homo sapiens, HL-60, 24 h, Conc. 0.10 mM, read-out: Energy Use by Undifferentiated HL-60 Cells
  activity at 100 µM: 99.9%
[1]; Homo sapiens, HL-60, 24 h, Conc. 0.33 mM, read-out: Energy Use by Undifferentiated HL-60 Cells
  activity at 330 µM: 112%
[1]; Homo sapiens, HL-60, 24 h, Conc. 1.00 mM, read-out: Energy Use by Undifferentiated HL-60 Cells
  activity at 1000 µM: 141%
[1]; Homo sapiens, HL-60, 24 h, Conc. 3.3 mM, read-out: Energy Use by Undifferentiated HL-60 Cells
  activity at 3300 µM: 182%
[1]; Homo sapiens, HL-60, 24 h, Conc. 10 mM, read-out: Energy Use by Undifferentiated HL-60 Cells
  activity at 10000 µM: 223%
[1]; Homo sapiens, HL-60, 24 h, Conc. 15 mM, read-out: Energy Use by Undifferentiated HL-60 Cells
  activity at 15000 µM: 261%
[1]; Homo sapiens, HL-60, 24 h, Conc. 20 mM, read-out: Energy Use by Undifferentiated HL-60 Cells
  activity at 20000 µM: 199%
HL-60 cells [2]; Homo sapiens, HL-60, Conc. 0.03 mM, read-out: HL-60 Cell Responses to Selected Compounds from PM1 and PM2
  activity at 30 µM: 118%
HL-60 cells [2]; Homo sapiens, HL-60, Conc. 0.10 mM, read-out: HL-60 Cell Responses to Selected Compounds from PM1 and PM2
  activity at 100 µM: 130%
HL-60 cells [2]; Homo sapiens, HL-60, Conc. 0.33 mM, read-out: HL-60 Cell Responses to Selected Compounds from PM1 and PM2
  activity at 330 µM: 133%
HL-60 cells [2]; Homo sapiens, HL-60, Conc. 1.00 mM, read-out: HL-60 Cell Responses to Selected Compounds from PM1 and PM2
  activity at 1000 µM: 142%
HL-60 cells [2]; Homo sapiens, HL-60, Conc. 3.3 mM, read-out: HL-60 Cell Responses to Selected Compounds from PM1 and PM2
  activity at 3300 µM: 167%
HL-60 cells [2]; Homo sapiens, HL-60, Conc. 10 mM, read-out: HL-60 Cell Responses to Selected Compounds from PM1 and PM2
  activity at 10000 µM: 173%
HL-60 cells [2]; Homo sapiens, HL-60, Conc. 15 mM, read-out: HL-60 Cell Responses to Selected Compounds from PM1 and PM2
  activity at 15000 µM: 139%
HL-60 cells [2]; Homo sapiens, HL-60, Conc. 20 mM, read-out: HL-60 Cell Responses to Selected Compounds from PM1 and PM2
  activity at 20000 µM: 93.3%
HL-60 cells [3]; [4]
  Effect of 1 mM chloramphenicol on HL-60 Energy Utilization: 10.4 % of negative control
HL-60 cells [3]; [5]
  Effect of 1 mM chloramphenicol on HL-60 Energy Utilization: −2.1 % of negative control
HL-60 cells [3]; [6]
  Effect of 1 mM chloramphenicol on HL-60 Energy Utilization: 2.6 % of negative control
HL-60 cells [3]; [7]
  Effect of 1 mM chloramphenicol on HL-60 Energy Utilization: 1.8 % of negative control
HL-60 cells [3]; [8]
  Effect of 1 mM chloramphenicol on HL-60 Energy Utilization: 43.3 % of negative control
HL-60 cells [3]; [9]
  Effect of 1 mM chloramphenicol on HL-60 Energy Utilization: 78.1 % of negative control
HL-60 cells [3]; [10]
  Effect of 1 mM chloramphenicol on HL-60 Energy Utilization: 47.8 % of negative control
HL-60 cells [3]; [11]
  Effect of 1 mM chloramphenicol on HL-60 Energy Utilization: 16.2 % of negative control
